# US20160175306A1, “COMBINATION OF A IMIDAZOPYRIDAZINE DERIVATIVE AND A MITOTIC AGENT FOR THE TREATMENT OF CANCER” (BAYER PHARMA AKTIENGESELLSCHAFT, priority 2013, published 2016)
# Legend:
# human CYP3A4 = target: T1, human CYP3A4 (Homo sapiens, UniProt P08684); experiment: Determination of inhibitory potential on human CYP3A4; type: in vitro ADME; settings: human liver microsomes, midazolam substrate; read-out: inhibition of liver enzyme CYP3A4
# T1 construct: Human liver microsomal preparation (pool of HLM) was applied for the assay; from tissue; host or cells: pooled human liver microsomes
# T1 sequence (P08684 whole entry): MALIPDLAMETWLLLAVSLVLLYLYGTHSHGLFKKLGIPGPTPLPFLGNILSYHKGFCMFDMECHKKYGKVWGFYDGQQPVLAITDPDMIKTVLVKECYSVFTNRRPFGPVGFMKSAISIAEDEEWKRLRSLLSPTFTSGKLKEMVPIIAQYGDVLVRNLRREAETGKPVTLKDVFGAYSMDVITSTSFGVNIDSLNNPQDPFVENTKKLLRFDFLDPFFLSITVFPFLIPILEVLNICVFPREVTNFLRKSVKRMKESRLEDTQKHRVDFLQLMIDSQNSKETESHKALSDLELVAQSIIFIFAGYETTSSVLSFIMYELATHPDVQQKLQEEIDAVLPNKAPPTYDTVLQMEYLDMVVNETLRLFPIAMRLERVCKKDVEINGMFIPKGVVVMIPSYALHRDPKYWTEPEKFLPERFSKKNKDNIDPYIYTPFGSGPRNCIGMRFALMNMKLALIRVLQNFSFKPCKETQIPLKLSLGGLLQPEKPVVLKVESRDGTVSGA
# Protocol: Determination of Inhibitory Potential on Human CYP3A4
# The potential of the test compound to act as a competitive inhibitor of CYP3A4 was evaluated in in vitro assays, using human liver microsomes and the reference substrate midazolam. The test compound was solved in acetonitrile. Human liver microsomal preparation (pool of HLM) was applied for the assay.
# A stock solution of the test compound was added to phosphate buffer containing EDTA, NADP, glucose 6-phosphate, and glucose 6-phosphate dehydrogenase. This mixture was sequentially diluted on a Genesis Workstation (Tecan, Crailsheim, FRG). After pre-warming, reaction was initiated by addition of a mixture of probe substrate (midazolam). […] The reference samples (substrate, but no inhibitor) were incubated in parallel in sextuple and contained the same amount of solvent as the test incubations. Reactions were stopped by addition of 100 μL acetonitrile containing the internal standard. Precipitated proteins were removed by centrifugation of the well plate, supernatants were analyzed by LC-MS/MS.
# The CYP3A4-mediated metabolic activity in the presence of the test compounds was expressed as percentages of the corresponding reference value. […]
# [1] = tested on: spindle assembly checkpoint in HeLa cells (phosphorylated histone H3 on serine 10); experiment: Spindle Assembly Checkpoint Assay; type: cell-based; settings: Homo sapiens, nocodazole 0.1 μg/ml, 4 h with compound
# Excerpt: The spindle assembly checkpoint assures the proper segregation of chromosomes during mitosis. Upon entry into mitosis, chromosomes begin to condensate which is accompanied by the phosphorylation of histone H3 on serine 10. Dephosphorylation of histone H3 on serine 10 begins in anaphase and ends at early telophase. Accordingly, phosphorylation of histone H3 on serine 10 can be utilized as a marker of cells in mitosis. Nocodazole is a microtubule destabilizing substance. Thus, nocodazole interferes with microtubule dynamics and mobilises the spindle assembly checkpoint. […] An inhibition of the spindle assembly checkpoint by Mps-1 inhibitors overrides the mitotic blockage in the presence of nocodazole, and the cells complete mitosis prematurely. This alteration is detected by the decrease of cells with phosphorylation of histone H3 on serine 10. This decline is used as a marker to determine the capability of compounds of the present invention to induce a mitotic breakthrough.
# Cultivated cells of the human cervical tumour cell line HeLa (ATCC CCL-2) were plated at a density of 2500 cells/well in a 384-well microtiter plate in 20 μl Dulbeco's Medium (w/o phenol red, w/o sodium pyruvate, w […] glucose, w pyridoxine) supplemented with 1% (v/v) glutamine, 1% (v/v) penicillin, 1% (v/v) streptomycin and 10% (v/v) fetal calf serum. After incubation overnight at 37° C., 10 μl/well nocodazole at a final concentration of 0.1 μg/ml were added to cells. After 24 h incubation, cells were arrested at G2/M phase of the cell cycle progression. […] Images were acquired with a Perkin Elmer OPERA™ High-Content Analysis reader. Images were analyzed with image analysis software MetaXpress™ from Molecular devices utilizing the Cell Cycle application module. In this assay both labels HOECHST 33342 and phosphorylated Histone H3 on serine 10 were measured. […] The raw assay data were further analysed by four parameter logistic regression analysis to determine the IC50 value for each tested compound.
# [2] = tested on: HeLa human cervical tumour cells; experiment: Proliferation Assay with HeLa cells; type: cell-based; settings: 96 h, 4 days, crystal violet
# Protocol: After 24 hours, the cells of one plate (zero-point plate) were stained with crystal violet (see below), while the medium of the other plates was replaced by fresh culture medium (200 μl), to which the test substances were added in various concentrations (0 μM, as well as in the range of 0.01-30 μM; the final concentration of the solvent dimethyl sulfoxide was 0.5%). The cells were incubated for 4 days in the presence of test substances. […] After three washing cycles of the fixed cells with water, the plates were dried at room temperature. The cells were stained by adding 100 μl/measuring point of a 0.1% crystal violet solution (pH 3.0). After three washing cycles of the stained cells with water, the plates were dried at room temperature. The dye was dissolved by adding 100 μl/measuring point of a 10% acetic acid solution. […] The change of cell number, in percent, was calculated by normalization of the measured values to the extinction values of the zero-point plate (=0%) and the extinction of the untreated (0 μm) cells (=100%). The IC50 values were determined by means of a 4 parameter fit using the company's own software.
IC50 (human CYP3A4) [nM],IC50 [1] [nM],IC50 [2] [nM],Compound
≥ 5000,< 1,< 25,"COc1ccc(Oc2cc(NCC3CCOCC3)c3ncc(-c4ccc(C(=O)NC5CC5)c(C)c4)n3n2)c(F)c1F [Compound A28, N-cyclopropyl-4-{6-(2,3-difluoro-4-methoxyphenoxy)-8-[(tetrahydro-2H-pyran-4-ylmethyl)amino]imidazo[1,2-b]pyridazin-3-yl}-2-methylbenzamide]"
≥ 5000,< 1,< 25,"COc1ccc(Oc2cc(NCC3COC3)c3ncc(-c4ccc(C(=O)NC5CC5)c(C)c4)n3n2)cc1F [Compound A26, N-cyclopropyl-4-{6-(3-fluoro-4-methoxyphenoxy)-8-[(oxetan-3-ylmethyl)amino]imidazo[1,2-b]pyridazin-3-yl}-2-methylbenzamide]"
